Conditions: room temperature

Substance: risperidone tartrate
- solubility (aqueous media): about 80 mg/ml
- solubility relative to risperidone hydrochloride: about 4 times
